Source: US7067112B2, “Cephaibols: novel antiparasitics from Acremonium tubakii, process for their production, and use thereof” (Sanofi-Aventis Deutschland GmbH, priority 1999, dated 2006)
Square brackets hold non-standard residues; d marks the D form. Peptide text beside a SMILES is read from it. Hyp = O=C(O)[CH]1C[CH](O)CN1; Phe(ol) = N[CH](CO)Cc1ccccc1; Iva = CC[C](C)(N)C(=O)O; Aib = CC(C)(N)C(=O)O

Assays:
[1] = solubility (physicochemical properties)
Text: (§1) The physicochemical and spectroscopic properties of the cephaibols according to the invention can be summarized as follows: […]

[2] = stability (physicochemical properties); settings: in neutral, mildly acidic and mildly alkaline medium
Text: as §1

| Compound | solubility in polar organic solvents [1] | solubility in water [1] | stability [2] |
| --- | --- | --- | --- |
| CCC(C)C(NC(=O)C(C)(C)NC(=O)C(CCC(N)=O)NC(=O)C(C)(CC)NC(=O)C(Cc1ccccc1)NC(C)=O)C(=O)NC(C(=O)NC(C)(C)C(=O)NC(CC(C)C)C(=O)NC(C)(C)C(=O)N1CC(O)CC1C(=O)NC(CCC(N)=O)C(=O)NC(C)(C)C(=O)N1CC(O)CC1C(=O)NC(C)(C)C(=O)N1CCCC1C(=O)NC(Cc1ccccc1)C(=O)NC(CO)C(=O)O)C(C)O (stereo not drawn) [Cephaibol P, AcPhe-Iva-Gln-Aib-Ile-Thr-Aib-Leu-Aib-Hyp-Gln-Aib-Hyp-Aib-Pro-Phe-Ser] (Ac-F[Iva]Q[Aib]IT[Aib]L[Aib][Hyp]Q[Aib][Hyp][Aib]PFS-OH; configuration not given here) | soluble | only slightly soluble | stable |
| CCC(C)(NC(=O)C(CC(C)C)NC(=O)C(C)NC(=O)C(C)(C)NC(=O)C(C)(C)NC(=O)C(C)(C)NC(=O)C(C)(C)NC(=O)C(Cc1ccccc1)NC(C)=O)C(=O)NC(C)(C)C(=O)N1CC(O)CC1C(=O)NC(CCC(N)=O)C(=O)NC(C)(CC)C(=O)N1CC(O)CC1C(=O)NC(C)(C)C(=O)N1CCCC1C(=O)NC(CO)Cc1ccccc1 (stereo not drawn) [Cephaibol A1, AcPhe-Aib-Aib-Aib-Aib-Ala-Leu-Iva-Aib-Hyp-Gln-Iva-Hyp-Aib-Pro-Phe-ol] (Ac-F[Aib][Aib][Aib][Aib]AL[Iva][Aib][Hyp]Q[Iva][Hyp][Aib]P[Phe(ol)]; configuration not given here) | soluble | only slightly soluble | stable |
| CCC(C)C(NC(=O)C(C)(C)NC(=O)C(CCC(N)=O)NC(=O)C(C)(CC)NC(=O)C(Cc1ccccc1)NC(C)=O)C(=O)NC(C(=O)NC(C)(C)C(=O)NC(CC(C)C)C(=O)NC(C)(C)C(=O)N1CCCC1C(=O)NC(CCC(N)=O)C(=O)NC(C)(C)C(=O)N1CC(O)CC1C(=O)NC(C)(C)C(=O)N1CCCC1C(=O)NC(Cc1ccccc1)C(=O)NC(CO)C(=O)O)C(C)O (stereo not drawn) [Cephaibol Q, AcPhe-Iva-Gln-Aib-Ile-Thr-Aib-Leu-Aib-Pro-Gln-Aib-Hyp-Aib-Pro-Phe-Ser] (Ac-F[Iva]Q[Aib]IT[Aib]L[Aib]PQ[Aib][Hyp][Aib]PFS-OH; configuration not given here) | soluble | only slightly soluble | stable |
| CCC(C)(NC(=O)C(CC(C)C)NC(=O)CNC(=O)C(C)(CC)NC(=O)C(C)(C)NC(=O)C(C)(C)NC(=O)C(C)(C)NC(=O)C(Cc1ccccc1)NC(C)=O)C(=O)NC(C)(C)C(=O)N1CC(O)CC1C(=O)NC(CCC(N)=O)C(=O)NC(C)(CC)C(=O)N1CC(O)CC1C(=O)NC(C)(C)C(=O)N1CCCC1C(=O)NC(CO)Cc1ccccc1 (stereo not drawn) [Cephaibol B, AcPhe-Aib-Aib-Aib-Iva-Gly-Leu-Iva-Aib-Hyp-Gln-Iva-Hyp-Aib-Pro-Phe-ol] (Ac-F[Aib][Aib][Aib][Iva]GL[Iva][Aib][Hyp]Q[Iva][Hyp][Aib]P[Phe(ol)]; configuration not given here) | soluble | only slightly soluble | stable |
| CC(=O)NC(Cc1ccccc1)C(=O)NC(C)(C)C(=O)NC(C)(C)C(=O)NC(C)(C)C(=O)NC(C)(C)C(=O)NCC(=O)NC(CC(C)C)C(=O)NC(C)(C)C(=O)NC(C)(C)C(=O)N1CC(O)CC1C(=O)NC(CCC(N)=O)C(=O)NC(C)(C)C(=O)N1CC(O)CC1C(=O)NC(C)(C)C(=O)N1CCCC1C(=O)NC(CO)Cc1ccccc1 (stereo not drawn) [Cephaibol D, AcPhe-Aib-Aib-Aib-Aib-Gly-Leu-Aib-Aib-Hyp-Gln-Aib-Hyp-Aib-Pro-Phe-ol] (Ac-F[Aib][Aib][Aib][Aib]GL[Aib][Aib][Hyp]Q[Aib][Hyp][Aib]P[Phe(ol)]; configuration not given here) | soluble | only slightly soluble | stable |
| CCC(C)(NC(=O)C(CC(C)C)NC(=O)CNC(=O)C(C)(C)NC(=O)C(C)(C)NC(=O)C(C)(C)NC(=O)C(C)(C)NC(=O)C(Cc1ccccc1)NC(C)=O)C(=O)NC(C)(C)C(=O)N1CC(O)CC1C(=O)NC(CCC(N)=O)C(=O)NC(C)(C)C(=O)N1CC(O)CC1C(=O)NC(C)(C)C(=O)N1CCCC1C(=O)NC(CO)Cc1ccccc1 (stereo not drawn) [Cephaibol C, AcPhe-Aib-Aib-Aib-Aib-Gly-Leu-Iva-Aib-Hyp-Gln-Aib-Hyp-Aib-Pro-Phe-ol] (Ac-F[Aib][Aib][Aib][Aib]GL[Iva][Aib][Hyp]Q[Aib][Hyp][Aib]P[Phe(ol)]; configuration not given here) | soluble | only slightly soluble | stable |
| CCC(C)(NC(=O)C(CCC(N)=O)NC(=O)C1CC(O)CN1C(=O)C(C)(C)NC(=O)C(C)(C)NC(=O)C(CC(C)C)NC(=O)CNC(=O)C(C)(C)NC(=O)C(C)(C)NC(=O)C(C)(C)NC(=O)C(C)(C)NC(=O)C(Cc1ccccc1)NC(C)=O)C(=O)N1CC(O)CC1C(=O)NC(C)(C)C(=O)N1CCCC1C(=O)NC(CO)Cc1ccccc1 (stereo not drawn) [Cephaibol E, AcPhe-Aib-Aib-Aib-Aib-Gly-Leu-Aib-Aib-Hyp-Gln-Iva-Hyp-Aib-Pro-Phe-ol] (Ac-F[Aib][Aib][Aib][Aib]GL[Aib][Aib][Hyp]Q[Iva][Hyp][Aib]P[Phe(ol)]; configuration not given here) | soluble | only slightly soluble | stable |
